Experimental data from US12084472B2 (Ardelyx, Inc., priority 2015, dated 2024).

target: T1, human TGR5 (Homo sapiens, UniProt Q8TDU6); assay: Cell-based TGR5 assay (cAMP generation, HTRF); settings: HEK293 cells stably transfected with human TGR5; cAMP by HTRF; 30 minutes at 37° C.; read-out: pEC50 Human TGR5 (converted)
T1 construct: expressed in transfected cells; host or cells: HEK293
T1 sequence (Q8TDU6 1-330): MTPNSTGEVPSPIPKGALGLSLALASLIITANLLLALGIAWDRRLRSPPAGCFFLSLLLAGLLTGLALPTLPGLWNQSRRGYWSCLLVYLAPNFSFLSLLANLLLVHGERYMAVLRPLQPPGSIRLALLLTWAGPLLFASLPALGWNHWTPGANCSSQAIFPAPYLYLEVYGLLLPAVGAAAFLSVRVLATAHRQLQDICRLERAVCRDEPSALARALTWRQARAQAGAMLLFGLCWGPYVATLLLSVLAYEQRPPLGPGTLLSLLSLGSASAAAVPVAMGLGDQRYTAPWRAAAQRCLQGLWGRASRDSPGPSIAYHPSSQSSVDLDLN
How it was run: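 Read-out was HTRF detection of cAMP, converted to concentration via a standard curve and fitted (3-parameter logistic) for pEC50 and maximal response. Agonist stimulation used HEK293 cells stably transfected with human TGR5, incubated 30 min at 37° C in IBMX-containing buffer at 0.05 nM to 10 μM compound.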

SMILES | EC50 [nM]
CCCN(C[C@H](O)[C@@H](O)[C@H](O)[C@H](O)CO)C(=O)CCCC(C)c1ccc(C)c(CNC2(c3cnccc3-c3ccccc3OC3CC3)CC2)c1 (stereo partly drawn) [Compound I-354, 5-{3-[({1-[4-(2-cyclopropoxyphenyl)pyridin-3-yl]cyclopropyl}amino)methyl]-4-methylphenyl}-N-[(2S,3R,4R,5R)-2,3,4,5,6-pentahydroxyhexyl]-N-propylhexanamide] | < 100
CCOC(=O)NCCN(CCCCSc1ccc(Cl)c(COC2(c3cnccc3-c3ccccc3OC3CC3)CC2)c1)C(=O)[C@@H](O)[C@@H](O)[C@H](O)[C@@H](O)CO [Compound I-576, ethyl N-{2-[(2S,3S,4R,5S)-N-(4-{[4-chloro-3-({1-[4-(2-cyclopropoxyphenyl)pyridin-3-yl]cyclopropoxy}methyl)phenyl]sulfanyl}butyl)-2,3,4,5,6-pentahydroxyhexanamido]ethyl}carbamate] | < 100
Cc1ccc(CCCCC(=O)N(C)C[C@H](O)[C@@H](O)[C@H](O)[C@H](O)CO)cc1CNC1(c2cnccc2-c2ccccc2OC2CC2)CC1 (stereo in doubt) [Compound I-238, 5-{3-[({1-[4-(2-cyclopropoxyphenyl)pyridin-3-yl]cyclopropyl}amino)methyl]-4-methylphenyl}-N-methyl-N-[(2S,3R,4R,5R)-2,3,4,5,6-pentahydroxyhexyl]pentanamide] | 126 to 1000
C[C@@H](O)CN(CCCCc1cc(Cl)c(COC2(c3cnccc3-c3ccccc3OC3CC3)CC2)cc1Cl)C(=O)[C@@H](O)[C@@H](O)[C@H](O)[C@@H](O)CO [Compound I-214, (2S,3S,4R,5S)-N-{4-[2,5-dichloro-4-({1-[4-(2-cyclopropoxyphenyl)pyridin-3-yl]cyclopropoxy}methyl)phenyl]butyl}-2,3,4,5,6-pentahydroxy-N-[(2R)-2-hydroxypropyl]hexanamide] | < 100
CC(CCCC(=O)N(CCO)C[C@@H](O)[C@H](O)[C@@H](O)[C@@H](O)CO)c1ccc(Cl)c(CNC2(c3cnccc3-c3ccccc3OC3CC3)CC2)c1 (stereo partly drawn) [Compound I-331, 5-{4-chloro-3-[({1-[4-(2-cyclopropoxyphenyl)pyridin-3-yl]cyclopropyl}amino)methyl]phenyl}-N-(2-hydroxyethyl)-N-[(2R,3S,4S,5S)-2,3,4,5,6-pentahydroxyhexyl]hexanamide] | < 100
CC(CCCCN)c1ccc(Cl)c(CNC2(c3cnccc3-c3ccccc3OC3CC3)CC2)c1 (single isomer, unassigned) [Compound I-244] | 126 to 1000
CN(C[C@H](O)[C@@H](O)[C@H](O)[C@H](O)CO)C(=O)CCCCSc1ccc(Cl)c(COC2(c3cnccc3-c3ccccc3OC3CC3)CC2)c1 [Compound I-682, 5-{[4-chloro-3-({1-[4-(2-cyclopropoxyphenyl)pyridin-3-yl]cyclopropoxy}methyl)phenyl]sulfanyl}-N-methyl-N-[(2S,3R,4R,5R)-2,3,4,5,6-pentahydroxyhexyl]pentanamide] | < 100
CS(=O)(=O)CCCN(CCCSc1ccc(Cl)c(CNC2(c3cnccc3-c3ccccc3OC3CC3)CC2)c1)C(=O)[C@@H](O)[C@@H](O)[C@H](O)[C@@H](O)CO [Compound I-525, (2S,3S,4R,5S)-N-[3-({4-chloro-3-[({1-[4-(2-cyclopropoxyphenyl)pyridin-3-yl]cyclopropyl}amino)methyl]phenyl}sulfanyl)propyl]-2,3,4,5,6-pentahydroxy-N-(3-methanesulfonylpropyl) hexanamide] | 126 to 1000
CC(=O)N(CCCSc1ccc(Cl)c(CNC2(c3cnccc3-c3ccccc3OC3CC3)CC2)c1)C[C@H](O)[C@@H](O)[C@H](O)[C@H](O)CO [Compound I-502, N-[3-({4-chloro-3-[({1-[4-(2-cyclopropoxyphenyl)pyridin-3-yl]cyclopropyl}amino)methyl]phenyl}sulfanyl)propyl]-N-[(2S,3R,4R,5R)-2,3,4,5,6-pentahydroxyhexyl]acetamide] | < 100
CC(OCCc1cc(Cl)c(COC2(c3cnccc3-c3ccccc3OC3CC3)CC2)cc1Cl)C(=O)NC[C@H](O)[C@@H](O)[C@H](O)[C@H](O)CO (stereo partly drawn) [Compound I-152, 2-{2-[2,5-dichloro-4-({1-[4-(2-cyclopropoxyphenyl)pyridin-3-yl]cyclopropoxy}methyl)phenyl]ethoxy}-N-[(2S,3R,4R,5R)-2,3,4,5,6-pentahydroxyhexyl]propanamide] | 126 to 1000
CC(CCCC(=O)N(C[C@@H](O)[C@H](O)[C@@H](O)[C@@H](O)CO)CC(C)(C)CO)c1ccc(Cl)c(CNC2(c3cnccc3-c3ccccc3OC3CC3)CC2)c1 (stereo partly drawn) [Compound I-341, 5-{4-chloro-3-[({1-[4-(2-cyclopropoxyphenyl)pyridin-3-yl]cyclopropyl}amino)methyl]phenyl}-N-(3-hydroxy-2,2-dimethylpropyl)-N-[(2R,3S,4S,5S)-2,3,4,5,6-pentahydroxyhexyl]hexanamide] | < 100
CS(=O)(=O)CC(=O)N(CCCCc1cc(Cl)c(COC2(c3cnccc3-c3ccccc3OC3CC3)CC2)cc1Cl)C[C@H](O)[C@@H](O)[C@H](O)[C@H](O)CO [Compound I-202, N-{4-[2,5-dichloro-4-({1-[4-(2-cyclopropoxyphenyl)pyridin-3-yl]cyclopropoxy}methyl)phenyl]butyl}-2-methanesulfonyl-N-[(2S,3R,4R,5R)-2,3,4,5,6-pentahydroxyhexyl]acetamide] | < 100
CC(C)(CC(=O)O)CC(=O)N(CCCCc1cc(Cl)c(CNC2(c3cnccc3-c3ccccc3OC3CC3)CC2)cc1Cl)C[C@H](O)[C@@H](O)[C@H](O)[C@H](O)CO [Compound I-201, 4-[(4-{2,5-dichloro-4-[({1-[4-(2-cyclopropoxyphenyl)pyridin-3-yl]cyclopropyl}amino)methyl]phenyl}butyl)[(2S,3R,4R,5R)-2,3,4,5,6-pentahydroxyhexyl]carbamoyl]-3,3-dimethylbutanoic acid] | 1260 to 10000
CC(=O)NS(=O)(=O)c1ccc(Cl)c(COC2(c3cnccc3-c3ccccc3OC3CC3)CC2)c1 [Compound I-729, N-[[4-chloro-3-([1-[4-(2-cyclopropoxyphenyl)pyridin-3-yl]cyclopropoxy]methyl)benzene]sulfonyl]acetamide] | 1260 to 10000
CC(CCCNC(=O)[C@@H](O)[C@@H](O)[C@H](O)[C@@H](O)CO)c1ccc(Cl)c(CNC2(c3cnccc3-c3ccccc3OC3CC3)CC2)c1 (stereo partly drawn) [Compound I-278, (2S,3S,4R,5S)-N-(4-{4-chloro-3-[({1-[4-(2-cyclopropoxyphenyl)pyridin-3-yl]cyclopropyl}amino)methyl]phenyl}pentyl)-2,3,4,5,6-pentahydroxyhexanamide] | < 100
Cc1ccc(CCCCNC(=O)NC[C@H](O)[C@@H](O)[C@H](O)[C@H](O)CO)cc1CNC1(c2cnccc2-c2ccccc2OC2CC2)CC1 [Compound I-240, 1-(4-{3-[({1-[4-(2-cyclopropoxyphenyl)pyridin-3-yl]cyclopropyl}amino)methyl]-4-methylphenyl}butyl)-3-[(2S,3R,4R,5R)-2,3,4,5,6-pentahydroxyhexyl]urea] | < 100
CC(CCCC(=O)N1CCN(CC(=O)NC[C@H](O)[C@@H](O)[C@H](O)[C@H](O)CO)CC1)c1ccc(Cl)c(CNC2(c3cnccc3-c3ccccc3OC3CC3)CC2)c1 (stereo partly drawn) [Compound I-321, 2-[4-(5-{4-chloro-3-[({1-[4-(2-cyclopropoxyphenyl)pyridin-3-yl]cyclopropyl}amino)methyl]phenyl}hexanoyl)piperazin-1-yl]-N-[(2S,3R,4R,5R)-2,3,4,5,6-pentahydroxyhexyl]acetamide] | < 100
Cc1ccc(Cl)c(CNC2(c3cnccc3-c3ccccc3OC3CC3)CC2)n1 [Compound I-35, N-[(3-chloro-6-methylpyridin-2-yl)methyl]-1-[4-(2-cyclopropoxyphenyl)pyridin-3-yl]cyclopropan-1-amine] | < 100
CNC(=O)CN(C[C@H](O)[C@@H](O)[C@H](O)[C@H](O)CO)C(=O)CCCC(C)c1ccc(C)c(CNC2(c3cnccc3-c3ccccc3OC3CC3)CC2)c1 (stereo partly drawn) [Compound I-360, 5-{3-[({1-[4-(2-cyclopropoxyphenyl)pyridin-3-yl]cyclopropyl}amino)methyl]-4-methylphenyl}-N-[(methylcarbamoyl)methyl]-N-[(2S,3R,4R,5R)-2,3,4,5,6-pentahydroxyhexyl]hexanamide] | < 100
CN(CCCCNC(=O)NC[C@H](O)[C@@H](O)[C@H](O)[C@H](O)CO)S(=O)(=O)c1ccc(C(F)(F)F)c(COC2(c3cnccc3-c3ccccc3OC3CC3)CC2)c1 [Compound I-469, 1-{4-[N-methyl3-({1-[4-(2-cyclopropoxyphenyl)pyridin-3-yl]cyclopropoxy}methyl)-4-(trifluoromethyl)benzenesulfonamido]butyl}-3-[(2S,3R,4R,5R)-2,3,4,5,6-pentahydroxyhexyl]urea] | < 100
O=C(NCC(O)C(O)C(O)C(O)CO)N[C@@H](CCCNS(=O)(=O)c1ccc(Cl)c(COC2(c3cnccc3-c3ccccc3OC3CC3)CC2)c1)C(=O)O (stereo partly drawn) [Compound I-480, (2S)-5-[4-chloro-3-({1-[4-(2-cyclopropoxyphenyl)pyridin-3-yl]cyclopropoxy}methyl)benzenesulfonamido]-2-{[(2,3,4,5,6-pentahydroxyhexyl)carbamoyl]amino}pentanoic acid] | < 100
Cc1cc(COC2(c3cnccc3-c3ccccc3OC3CC3)CC2)c(Cl)cc1CCCCNC(=O)N[C@@H](CCCNC(=N)N)C(=O)O [Compound I-113, (2S)-5-carbamimidamido-2-[({4-[5-chloro-4-({1-[4-(2-cyclopropoxyphenyl)pyridin-3-yl]cyclopropoxy}methyl)-2-methylphenyl]butyl}carbamoyl)amino]pentanoic acid] | < 100
